These results are taken from patent EP0075095A2, “Cephalosporin derivatives, process for their preparation, pharmaceutical compositions containing them and intermediates” (F. HOFFMANN-LA ROCHE & CO. Aktiengesellschaft, priority 1981, dated 1983).

Broadly, the LD50 is the dose expected to kill half of the subjects tested.

One series relates to Streptococcus pyogenes. As to the kind of experiment: Oral antimicrobial activity in vivo in the mouse (curative dose CD50), Streptococcus pyogenes infection. The note with it: peroral dose at which 50% of tested mice survive, read-out: CD50, p.o. On the set-up: species or system Maus. The text has this: (§1) Die orale antimikrobielle Wirksamkeit der erwähnten Produkte kann anhand von in-vivo-Versuchen an der Maus nachgewiesen werden. Im nachstehenden bedeutet die kurative Dosis (CD50, p.o., mg/kg) diejenige perorale Dosis, bei der 50% der getesteten Mäuse überleben.
(§2) Ergebnis (CD50, p.o., mg/kg)

The test system of the next series is Serratia marcescens. The series can be described thus: Oral antimicrobial activity in vivo in the mouse (curative dose CD50), Serratia marcescens infection. The following applies: peroral dose at which 50% of tested mice survive, read-out: CD50, p.o. On the set-up: species or system Maus.
From the text: as §1, §2

A further series deals with Escherichia coli. As to the kind of experiment: Oral antimicrobial activity in vivo in the mouse (curative dose CD50), Escherichia coli infection. On the set-up: species or system Maus. The note with it: peroral dose at which 50% of tested mice survive, read-out: CD50, p.o.
From the text: as §1, §2

The test system of another series is Klebsiella pneumoniae. As to the kind of experiment: Oral antimicrobial activity in vivo in the mouse (curative dose CD50), Klebsiella pneumoniae infection. Details: species or system Maus. The following applies: peroral dose at which 50% of tested mice survive, read-out: CD50, p.o.
From the text: as §1, §2

The next series in a line: in vivo. The note with it: mouse, po.

For `CCn1nc(C(=O)OC)nc1SCC1=C(C(=O)OCOC(=O)C(C)(C)C)N2C(=O)[C@@H](NC(=O)/C(=N\OC)c3csc(N)n3)[C@H]2SC1` [Produkt C, Methylen-(6R,7R)-7-[(Z)-2-(2-Amino-4-thiazolyl)-2-(methoxyimino)acetamido]-3-[[[2-äthyl-5-(methoxycarbonyl)-2H-1,2,4-triazol-3-yl]thio]methyl]-8-oxo-5-thia-2-azabicyclo[4.2.0]oct-2-en-2-carboxylat-pivalat], the ED50 was found to be 0.53 mg/kg with Streptococcus pyogenes and 2.54 mg/kg in the series with Serratia marcescens.

On to `CCCn1nc(C(=O)OC)nc1SCC1=C(C(=O)OCOC(=O)C(C)(C)C)N2C(=O)[C@@H](NC(=O)/C(=N\OC)c3csc(N)n3)[C@H]2SC1` [Produkt E], for which the ED50 in the series with Streptococcus pyogenes was 0.89 mg/kg; in the series with Escherichia coli, 0.04 mg/kg; in the series on Klebsiella pneumoniae, 2.5 mg/kg; with Serratia marcescens, 1.8 mg/kg. The molecule further came in with an LD50 at 24 h in the series “in vivo” of more than 5000 mg/kg.

Consider `CO/N=C(\C(=O)N[C@@H]1C(=O)N2C(C(=O)OCOC(=O)C(C)(C)C)=C(CSc3nc(C(=O)OC)nn3CC(=O)OCOC(=O)C(C)(C)C)CS[C@H]12)c1csc(N)n1` [Produkt D, Methylen-(6R,7R)-7-[(Z)-2-(2-Amino-4-thiazolyl)-2-(methoxyimino)-acetamido]-3-[[[5-(methoxycarbonyl)-2-[[[(pivaloyloxy)methoxy]-carbonyl]methyl]-2H-1,2,4-triazol-3-yl]thio]-methyl]-8-oxo-5-thia-1-azabicyclo[4.2.0]oct-2-en-2-carboxylat-pivalat], for which the ED50 with Streptococcus pyogenes was 8.8 mg/kg; with Klebsiella pneumoniae, 12.5 mg/kg; in the series on Serratia marcescens, more than 6 mg/kg. Also, the LD50 at 24 h in “in vivo” is more than 5000 mg/kg.

With `CO/N=C(\C(=O)N[C@@H]1C(=O)N2C(C(=O)OCOC(=O)C(C)(C)C)=C(CSc3nc(C(=O)OC)nn3C)CS[C@H]12)c1csc(N)n1` [Produkt A], the ED50 in the series with Streptococcus pyogenes came out at 0.72 mg/kg; with Escherichia coli, 0.07 mg/kg; in the series with Klebsiella pneumoniae it was 3.7 mg/kg; with Serratia marcescens, 1.5 mg/kg. In “in vivo”, this molecule had an LD50 at 24 h of more than 5000 mg/kg.

Regarding `CC1=C(C(=O)O)N2C(=O)[C@@H](NC(=O)[C@H](N)c3ccccc3)[C@H]2SC1` [Cephalexin, reference compound], the ED50 was 1.8 mg/kg with Streptococcus pyogenes, 3.2 mg/kg in the series with Escherichia coli and more than 50 mg/kg in the series on Serratia marcescens.

Regarding `CCOC(=O)c1nc(SCC2=C(C(=O)OCOC(=O)C(C)(C)C)N3C(=O)[C@@H](NC(=O)/C(=N\OC)c4csc(N)n4)[C@H]3SC2)n(C)n1` [Produkt B], the ED50 in the series on Streptococcus pyogenes stood at 2.1 mg/kg; with Serratia marcescens, 0.8 mg/kg. For the same molecule, the LD50 at 24 h in “in vivo” was more than 5000 mg/kg.

Regarding `CO/N=C(\C(=O)N[C@@H]1C(=O)N2C(C(=O)OCOC(=O)C(C)(C)C)=C(CSc3nc(C(=O)OC)nn3-c3ccccc3)CS[C@H]12)c1csc(N)n1` [Produkt F], the ED50 in the series with Streptococcus pyogenes is 1.5 mg/kg; in the series with Klebsiella pneumoniae, more than 12 mg/kg; with Serratia marcescens it was 5.8 mg/kg. Moreover, the LD50 at 24 h in the series “in vivo” is more than 5000 mg/kg.
